“Also recorded” adds a separate entry of the source.
Assays:
NC/Nga mice [1] = assay: Scratching behavior (itch) in PiCl-sensitized NC/Nga dermatitis model mice, video monitoring; format: in vivo
From the text: On day 12, day 19, day 26 and day 33 after starting application of Vaseline or fucoxanthin, 0.8% picryl chloride (PiCl) was further applied to the back skin of the mice. The behaviors of the mice were observed by video monitoring. On day 34 after starting application of Vaseline or fucoxanthin, bromodeoxyuridine (BrdU, Nacalai Tesque) ([…]) was intraperitoneally administered to the mice. At 5 weeks after starting application of Vaseline or fucoxanthin, the time each mouse spent for scratching behavior in 10 minutes was measured by video monitoring. Then, the mice were sacrificed and the auricular lymph node, blood and skin were obtained. Serum IgE content was determined by enzyme-linked immunosorbent assay (ELISA) using Mouse IgE Assay Kit (Morinaga Institute of Biological Science, Inc.). […] BrdU uptake was determined by ELISA using Cell Proliferation ELISA, BrdU (Colorimetric) (Roche Diagnostics K.K.).
In the same manner as described in Example 2, Vaseline, fucoxanthin or tacrolimus and PiCl were applied to NC/Nga mice. At 5 weeks after starting application of fucoxanthin or tacrolimus, the time spent for scratching behavior per 10 minutes in the mice treated with fucoxanthin was measured and compared to that in the mice treated with tacrolimus. […]

bone marrow cells = assay: Formation of bone marrow-derived mast cells (BMMCs) from bone marrow cells; format: cell-based, mice; conditions: 0.1 μM, 1 μM or 10 μM, vs DMSO
Description: Bone marrow cells were obtained from 8-week-old female mice and cultured in a medium for conditioning that contained WEHI-3 cells (National Institute of Biomedical Innovation, Health and Nutrition). The culture was performed according to the method described in Yamashita, U. et al. (2005) “Strain difference of murine bone marrow-derived mast cell functions.” J. Leukoc. Biol. 78(3): 605-611. The bone marrow cells were treated with 0.1 μM, 1 μM or 10 μM fucxanthin, or dimethyl sulfoxide (DMSO) as a control. The number of BMMCs containing 10 fields (100 μm×100 μm) per well was counted (FIG. 2C).

[2] = test system: bone marrow-derived mast cells (BMMCs); assay: Granule formation in BMMCs, tryptase immunostaining; format: cell-based, mice; conditions: 10 μM, vs control-treated cells
Description: Mature mast cells were prepared in the same manner as described in Example 5. The BMMCs obtained were mounted on a glass slide and heat-fixed. The analysis of the preparation was performed according to the method described in Kosaka, T., Fukui, R., Matsui, M. et al. (2014) “RAGE, Receptor of Advanced Glycation Endoproducts, Negatively Regulates Chondrocytes Differentiation.” PLoS ONE 9(10): e108819. Briefly, the cells were reacted with a mouse anti-mast cell tryptase antibody (AB2378, Abcam, Tokyo, Japan) and then reacted with an FITC-conjugated anti-mouse IgG (Santa Cruz Biotechnology, Inc.) and 1 μg/mL DAPI (4′,6-diamino-2-phenylindole dihydrochloride). The fluorescent image was analyzed by EVOS® FL Cell Imaging System (Life Technologies Corp).
To confirm where the effect of fucoxanthin on granule formation in mast cells is specific rather than common to carotenoids, we compared granule formation between fucoxanthin-treated and astaxanthin-treated BMMCs by immunostaining of tryptase. The immunostaining assay was performed in the same manner as described in Example 6.

GATA-luc = assay: Luciferase reporter assay in HEK293 cells; format: cell-based; conditions: HEK293, treated 3 hours after transfection for 48 hours, vs DMSO (fucoxanthin 0.1, 1, 10 μM)
From the text: The plasmids pGL3-Cebpα promoter-luc and pGL3-Mitf1 promoter-luc were provided by Dr. Hua Huang (University of Colorado school, Denver, USA). The plasmid NF-κB-luc was purchased from Agilent Technologies (Santa Clara, Calif.). The GATA-responsive reporter vector was provided by Dr. Ishijima (Takasaki University of Health and welfare, Gunma, Japan). Three GATA motifs from mouse α-1 globulin gene (5′-TGATAA-3′) were tandemly inserted into Sma I site of pRBGP3. HDC promoter was provided by Dr. Ootsu (Tohoku University school of Medicine, Sendai, Japan) and cloned into Kpn I-Hind III site of pGL4.10 (Hdc promoter-luc). The reporter assay was performed according to the method described in Kanatani, N. et al. Briefly, HEK293 cells were transfected with each of the luciferase constructs (0.2 μg) or pRL-CMV (Promega, Madison, Wis.) (0.001 μg). At 3 hours after transfection, the cells were treated with fucoxanthin (0.1 μM, 1 μM or 10 μM) or DMSO for 48 hours and reporter assay was performed using Dual-Luciferase® Reporter Assay System (Promega). Luciferase activity was measured using luminometer model TD20/20n (Turner BioSystems, Sunnyvale, Calif.) and normalized to Renilla luciferase activity expressed by CMV promoter.
GATA-reporter assay was performed using HEK293 cells expressing GATA-luc prepared in Example 8, in the same manner as described in Example 8 except using various carotenoids (fucoxanthin, astaxanthin, lycopene, β-carotene or retinoic acid) in place of fucoxanthin.

filaggrin (Flg) = assay: Immunohistochemical analysis of skin of NC/Nga mice; format: in vivo; conditions: topical treatment for 5 weeks, vs Vaseline
Description: (§1) Vaseline or fucoxanthin and PiCl were applied to the mice in the same manner as described in Example 2. At 5 weeks after starting application of Vaseline or fucoxanthin, the mice were sacrificed the mice skins were fixed with 4% paraformaldehyde and analyzed according to the method described in Kosaka, T. et al. (supra). The skin section (10 μm thick) was analyzed immunohistochemically using a rabbit anti-filaggrin antibody (Santa Cruz Biotechnology, Inc.) and a rabbit anti-loricrin antibody (Covance). Then, the sample was reacted with an FITC-conjugated anti-rabbit IgG IgG (Santa Cruz Biotechnology, Inc.).

loricrin (Lor) = assay: as above; format: in vivo; conditions: topical treatment for 5 weeks, vs Vaseline
Description: as §1

NC/Nga mice [3] = assay: Clinical symptoms of dermatitis in PiCl-sensitized NC/Nga mice; format: in vivo; conditions: topical application plus PiCl, at 5 weeks
Description: Next, we examined the effects of fucoxanthin and astaxanthin on clinical symptoms of dermatitis in NC/Nga mice. In the same manner as described in Example 2, fucoxanthin or astaxanthin and PiCl were applied to NC/Nga mice. […] In the same manner as described in Example 2, Vaseline, fucoxanthin or tacrolimus and PiCl were applied to NC/Nga mice. […] Also, serum IgE levels and swelling of the auricular lymph nodes of the mice were determined in the same manner as described in Example 2.

NC/Nga mice [4] = assay: Transdermal water loss (TEWL) in the skin of NC/Nga mice; format: in vivo; conditions: topical application plus PiCl, at 5 weeks, vs Vaseline
Description: Transdermal water loss (TEWL) in the skin of the mice treated with fucoxanthin was also measured and compared with that in the skin of the mice treated with tacrolimus.

CC(=O)O[C@H]1CC(C)(C)C(=C=C/C(C)=C/C=C/C(C)=C/C=C/C=C(C)/C=C/C=C(\C)C(=O)C[C@@]23O[C@]2(C)C[C@@H](O)CC3(C)C)[C@](C)(O)C1 [fucoxanthin]
time spent for scratching behavior in 10 minutes (NC/Nga mice [1]; applied daily to back skin (0.1% (w/w) fucoxanthin in Vaseline), PiCl sensitization, at 5 weeks, vs Vaseline-applied mice): attenuated; also recorded: remarkably shorter
speed of action on itch compared with tacrolimus (NC/Nga mice [1]; topical application, PiCl-sensitized NC/Nga mice, scratching time per 10 minutes): faster-acting than tacrolimus
BMMC formation (number of BMMCs) (bone marrow cells): suppressed BMMC formation in a dose-dependent manner
granule formation (tryptase-positive cells / immunoreactivity against tryptase) [2]: remarkably reduced; also recorded: No tryptase-positive cell; also recorded: suppressed granule formation; also recorded: almost completely inhibited granule formation
GATA-luc expression (GATA-luc): downregulated
filaggrin expression in the epidermis (immunohistochemistry) (filaggrin (Flg)): elevated; also recorded: abundantly localized in the stratum corneum
loricrin expression in the epidermis (immunohistochemistry) (loricrin (Lor)): elevated; also recorded: distributed in the whole skin
clinical symptoms of dermatitis (AD symptoms) (NC/Nga mice [3]): remarkably improved; also recorded: almost completely did; also recorded: ameliorated clinical symptom of dermatitis
transdermal water loss (TEWL) (NC/Nga mice [4]): remarkably inhibited moisture evaporation

— patent US9566262B2, “Itch suppression by fucoxanthin” (THE RITSUMEIKAN TRUST, priority 2015, dated 2017)
